From patent US5302604A, “Cholesterol lowering compounds produced by directed biosynthesis” (Merck & Co., Inc., priority 1992, dated 1994)
pIC50: −log10 of the molar value.

Molecular target: T1, Squalene Synthetase (Rattus norvegicus, UniProt Q02769)
T1 construct: from tissue; host or cells: liver microsomes (100,000×g pellet) of male Charles River CD rats fed 0.1% lovastatin for 4 days
T1 sequence (Q02769 1-416): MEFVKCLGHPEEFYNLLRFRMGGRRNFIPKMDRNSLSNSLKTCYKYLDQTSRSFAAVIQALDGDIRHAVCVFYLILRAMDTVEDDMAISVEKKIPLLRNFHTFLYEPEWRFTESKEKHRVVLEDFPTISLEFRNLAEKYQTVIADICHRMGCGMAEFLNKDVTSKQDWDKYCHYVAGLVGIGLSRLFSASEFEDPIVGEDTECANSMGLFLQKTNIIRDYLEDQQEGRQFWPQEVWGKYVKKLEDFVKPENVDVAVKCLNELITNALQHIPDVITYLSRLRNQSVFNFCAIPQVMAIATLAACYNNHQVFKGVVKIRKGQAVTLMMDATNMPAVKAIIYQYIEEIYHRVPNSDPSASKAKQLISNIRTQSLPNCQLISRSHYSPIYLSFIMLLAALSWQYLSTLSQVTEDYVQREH
Assay: Squalene synthetase assay (in vitro inhibition, conversion of [4-^14 C]farnesyl-pyrophosphate)
Format: biochemical
Details: rat liver microsomes, 30° C., 20 minutes
Procedure: The intrinsic squalene synthetase inhibitory activity of representative compounds of this invention was measured by the standard in vitro protocol described below:
PREPARATION OF RAT LIVER MICROSOMES
Male, Charles River CD rats (120 to 150 g) were fed a diet containing 0.1% lovastatin for 4 days. The livers from these rats were homogenized in 5 volumes (mL/g) of ice cold 50 mM HEPES (4-(2-hydroxyethyl)-1-piperazine-ethanesulfonic acid), 5 mM EDTA (ethylenediaminetetraacetic acid) pH 7.5 with a Potter-Elvehjem type tissue grinder. The homogenate was centrifuged twice at 20,000×g for 15 min. at 4° C., discarding the pellet each time. The supernatant was then centrifuged at 100,000×g for 1 hr at 4° C. The resulting microsomal pellet was resuspended in a volume of the above homogenizing buffer equal to one-fifth the volume of the original homogenate. This microsomal preparation has a protein concentration of about 7 mg/mL. The microsomal suspensions were stored in aliquots at -70° C. Squalene synthetase activity in these aliquots is stable for a least several months.
Partial Purification of Prenyl Transferase
Prenyl transferase was purified to use in the enzymatic synthesis of radiolabelled farnesyl pyrophosphate. […]

pIC50: 9.70
SMILES: C=C(CCC12OC(C(=O)O)C(O)(C(=O)O)C(C(=O)O)(O1)C(OC(=O)/C=C/C(C)CC(C)CC)C2O)C(OC(C)=O)C(C)Cc1ccsc1 (stereo not shown)
